In PMC11844072, “Novel 5,6-dichlorobenzimidazole derivatives as dual BRAFWT and BRAFV600E inhibitors: design, synthesis, anti-cancer activity and molecular dynamics simulations” (BMC Chemistry, 2025):

Key:
Test in all cases: NCI 60 single concentration growth inhibition
Assay type in all cases: cell-based, human
BT-549 = details: Homo sapiens, BT-549, Breast cancer, read-out: GI%
Protocol: (§1) The synthesized dichlorobenzimidazoles 10a–p were assayed for their influence on divers cancer cell lines according to the method presented in the Additional file A.
(§2) 5. Screening of cytotoxic activity against a panel of sixty human tumor cell lines
(§3) The selected compounds by NCI were evaluated for their anticancer activity in a two-stage process. First, these compounds were screened against the full NCI 60 cell lines panel at a single high dose of 10 µM. Then, the output from the single dose screen is reported as a mean graph. […]
(§4) at five different minimal concentrations.
(§5) Assay protocol. The human tumor cell lines of the cancer screening panel are grown in RPMI 1640 medium containing 5% fetal bovine serum and 2 mM L-glutamine. For a typical screening experiment, cells are inoculated into 96 well microtiter plates in 100 µL at plating densities ranging from 5000 to 40,000 cells/well depending on the doubling time of individual cell lines. After cell inoculation, the microtiter plates are incubated at 37 °C, 5% CO 2, 95% air and 100% relative humidity for 24 h prior to addition of the experimental drugs.
(§6) After 24 h, two plates of each cell line are fixed in situ with TCA, to represent a measurement of the cell population for each cell line at the time of drug addition (Tz). The experimental drugs are solubilized in dimethyl sulfoxide at 400-fold the desired final maximum test concentration and stored frozen prior to use. At the time of drug addition, an aliquot of frozen concentrate is thawed and diluted to twice the desired final maximum test concentration with complete medium containing 50 µg/mL gentamicin. Additional four, 10-fold or ½ log serial dilutions are made to provide a total of five drug concentrations plus control.
(§7) Aliquots of […] of these different drug dilutions are added to the appropriate microtiter wells already containing […] of medium, resulting in the required final drug concentrations.
(§8) Following drug addition, the plates are incubated for an additional 48 h at 37 °C, 5% CO 2, 95% air, and 100% relative humidity. For adherent cells, the assay is terminated by the addition of cold TCA.
(§9) Cells are fixed in situ by the gentle addition of 50 µL of cold 50% (w/v) TCA (final concentration, 10% TCA) and incubated for 60 min at 4 °C. The supernatant is discarded, and the plates are washed five times with tap water and air dried. Sulforhodamine B (SRB) solution ([…]) at 0.4% (w/v) in 1% acetic acid is added to each well, and plates are incubated for 10 min at room temperature. After staining, unbound dye is removed by washing five times with 1% acetic acid and the plates are air dried. Bound stain is subsequently solubilized with 10 mM trizma base, and the absorbance is read on an automated plate reader at a wavelength of 515 nm. For suspension cells, the methodology is […]
(§10) the same except that the assay is terminated by fixing settled cells at the bottom of the wells by gently adding 50 µl of 80% TCA (final concentration, 16% TCA). Using the seven absorbance measurements [time zero, (Tz), control growth, (C), and test growth in the presence of drug at the five concentration levels (Ti)], the percentage growth is calculated at each of the drug concentrations […]
(§11) Percentage growth inhibition is calculated as: [(Ti Tz)/(C–Tz)] x 100 for concentrations for which Ti>/=Tz and [(Ti-Tz)/Tz] x 100 for concentrations for which Ti < Tz.
(§12) Three dose response parameters are calculated for each experimental agent. Growth […]
(§13) concentration resulting in a 50% reduction in the net protein increase (as measured by SRB staining) in control cells during the drug incubation. The drug concentration resulting in total growth inhibition (TGI) is calculated from Ti = Tz. […]
(§14) reduction in the measured protein at the end of the drug treatment as compared to that at the beginning) indicating a net loss of cells following treatment is calculated from [(Ti–Tz)/Tz] x 100 =
(§15) _50. Values are calculated for each of these three parameters if the level of activity is reached; […]

CAKI-1 = details: Homo sapiens, CAKI-1, Renal cancer, read-out: GI%
Protocol: as §1, §2, §3, §4, §5, §6, §7, §8, §9, §10, §11, §12, §13, §14, §15

CCRF-CEM = details: Homo sapiens, Leukemia, read-out: GI%
Protocol: as §1, §2, §3, §4, §5, §6, §7, §8, §9, §10, §11, §12, §13, §14, §15

HCT-116 = details: Homo sapiens, HCT-116, Colon cancer, read-out: GI%
Protocol: as §1, §2, §3, §4, §5, §6, §7, §8, §9, §10, §11, §12, §13, §14, §15

HL-60(TB) = details: Homo sapiens, Leukemia, read-out: GI%
Protocol: as §1, §2, §3, §4, §5, §6, §7, §8, §9, §10, §11, §12, §13, §14, §15

HS 578T = details: Homo sapiens, Breast cancer, read-out: GI%
Protocol: as §1, §2, §3, §4, §5, §6, §7, §8, §9, §10, §11, §12, §13, §14, §15

KM12 = details: Homo sapiens, KM12, Colon cancer, read-out: GI%
Protocol: as §1, §2, §3, §4, §5, §6, §7, §8, §9, §10, §11, §12, §13, §14, §15

M14 = details: Homo sapiens, M14, Melanoma, read-out: GI%
Protocol: as §1, §2, §3, §4, §5, §6, §7, §8, §9, §10, §11, §12, §13, §14, §15

MDA-MB-231/ATCC = details: Homo sapiens, Breast cancer, read-out: GI%
Protocol: as §1, §2, §3, §4, §5, §6, §7, §8, §9, §10, §11, §12, §13, §14, §15

MDA-MB-435 = details: Homo sapiens, MDA-MB-435, Melanoma, read-out: GI%
Protocol: as §1, §2, §3, §4, §5, §6, §7, §8, §9, §10, §11, §12, §13, §14, §15

MDA-MB-468 = details: Homo sapiens, MDA-MB-468, Breast cancer, read-out: GI%
Protocol: as §1, §2, §3, §4, §5, §6, §7, §8, §9, §10, §11, §12, §13, §14, §15

MOLT-4 = details: Homo sapiens, MOLT-4, Leukemia, read-out: GI%
Protocol: as §1, §2, §3, §4, §5, §6, §7, §8, §9, §10, §11, §12, §13, §14, §15

NCI-H23 = details: Homo sapiens, NCI-H23, Non-small cell lung cancer, read-out: GI%
Protocol: as §1, §2, §3, §4, §5, §6, §7, §8, §9, §10, §11, §12, §13, §14, §15

OVCAR-5 = details: Homo sapiens, OVCAR-5, Ovarian cancer, read-out: GI%
Protocol: as §1, §2, §3, §4, §5, §6, §7, §8, §9, §10, §11, §12, §13, §14, §15

RPMI-8226 = details: Homo sapiens, RPMI-8226, Leukemia, read-out: GI%
Protocol: as §1, §2, §3, §4, §5, §6, §7, §8, §9, §10, §11, §12, §13, §14, §15

RXF 393 = details: Homo sapiens, RXF 393, Renal cancer, read-out: GI%
Protocol: as §1, §2, §3, §4, §5, §6, §7, §8, §9, §10, §11, §12, §13, §14, §15

SF-268 = details: Homo sapiens, SF-268, CNS cancer, read-out: GI%
Protocol: as §1, §2, §3, §4, §5, §6, §7, §8, §9, §10, §11, §12, §13, §14, §15

SK-MEL-2 = details: Homo sapiens, SK-MEL-2, Melanoma, read-out: GI%
Protocol: as §1, §2, §3, §4, §5, §6, §7, §8, §9, §10, §11, §12, §13, §14, §15

SK-MEL-5 = details: Homo sapiens, SK-MEL-5, Melanoma, read-out: GI%
Protocol: as §1, §2, §3, §4, §5, §6, §7, §8, §9, §10, §11, §12, §13, §14, §15

T-47D = details: Homo sapiens, T47D, Breast cancer, read-out: GI%
Protocol: as §1, §2, §3, §4, §5, §6, §7, §8, §9, §10, §11, §12, §13, §14, §15

UACC-257 = details: Homo sapiens, UACC-257, Melanoma, read-out: GI%
Protocol: as §1, §2, §3, §4, §5, §6, §7, §8, §9, §10, §11, §12, §13, §14, §15

UACC-62 = details: Homo sapiens, UACC-62, Melanoma, read-out: GI%
Protocol: as §1, §2, §3, §4, §5, §6, §7, §8, §9, §10, §11, §12, §13, §14, §15

SMILES	inhibition at 10 µM (BT-549) [%]	inhibition at 10 µM (CAKI-1) [%]	inhibition at 10 µM (CCRF-CEM) [%]	inhibition at 10 µM (HCT-116) [%]	inhibition at 10 µM (HL-60(TB)) [%]	inhibition at 10 µM (HS 578T) [%]	inhibition at 10 µM (KM12) [%]	inhibition at 10 µM (M14) [%]	inhibition at 10 µM (MDA-MB-231/ATCC) [%]	inhibition at 10 µM (MDA-MB-435) [%]	inhibition at 10 µM (MDA-MB-468) [%]	inhibition at 10 µM (MOLT-4) [%]	inhibition at 10 µM (NCI-H23) [%]	inhibition at 10 µM (OVCAR-5) [%]	inhibition at 10 µM (RPMI-8226) [%]	inhibition at 10 µM (RXF 393) [%]	inhibition at 10 µM (SF-268) [%]	inhibition at 10 µM (SK-MEL-2) [%]	inhibition at 10 µM (SK-MEL-5) [%]	inhibition at 10 µM (T-47D) [%]	further results
COc1ccc(-c2nc3cc(Cl)c(Cl)cc3n2CC(=O)NN=Cc2ccc(OCC(=O)O)cc2)cc1 [Compound 10f, 2-(4-((2-(2-(5,6-Dichloro-2-(4-methoxyphenyl)-1H-benzo[d]imidazol-1-yl)acetyl)hydrazono)methyl)phenoxy)acetic acid]	< 5	15	< 5	< 5	< 5	< 5	< 5	< 5	< 5	< 5	6.38	< 5	< 5	< 5	< 5	< 5	< 5	< 5	< 5	< 5	inhibition at 10 µM (UACC-257): < 5%; inhibition at 10 µM (UACC-62): < 5%
COC(=O)COc1cccc(C=NNC(=O)Cn2c(-c3ccc(OC)cc3)nc3cc(Cl)c(Cl)cc32)c1 [Compound 10g, Methyl-2-(3-((2-(2-(5,6-dichloro-2-(4-methoxyphenyl)-1H-benzo[d]imidazol-1-yl)acetyl)hydrazono)methyl)phenoxy)acetate]	< 5	10.5	20.9	10.6	< 5	13.9	< 5	< 5	21.6	11.9	112	30.4	< 5	< 5	< 5	32.9	< 5	< 5	8.95	55.9	inhibition at 10 µM (UACC-257): < 5%; inhibition at 10 µM (UACC-62): < 5%
COC(=O)COc1ccc(C=NNC(=O)Cn2c(-c3ccc(OC)cc3)nc3cc(Cl)c(Cl)cc32)cc1 [Compound 10h, Methyl-2-(4-((2-(2-(5,6-dichloro-2-(4-methoxyphenyl)-1H-benzo[d]imidazol-1-yl)acetyl)hydrazono)methyl)phenoxy)acetate]	6.87	5.89	28.1	10.8	< 5	72.2	< 5	10.8	94.5	18.3	177	53.2	< 5	< 5	< 5	85.7	< 5	26.4	< 5	107	inhibition at 10 µM (UACC-257): < 5%; inhibition at 10 µM (UACC-62): < 5%
CCOC(=O)C(C)Oc1ccc(C=NNC(=O)Cn2c(-c3ccc(OC)cc3)nc3cc(Cl)c(Cl)cc32)cc1 (centres unmarked) [Compound 10j, Ethyl-2-(4-((2-(2-(5,6-dichloro-2-(4-methoxyphenyl)-1H-benzo[d]imidazol-1-yl)acetyl) hydrazono)methyl)phenoxy)propanoate]	11.8	9.1	25.8	32.3	6.19	< 5	< 5	9.09	17.2	24.8	43.9	53.2	20.8	< 5	40.2	43.7	14.3	8.36	25.2	72.8	inhibition at 10 µM (UACC-257): < 5%; inhibition at 10 µM (UACC-62): 20.1%
COc1ccc(-c2nc3cc(Cl)c(Cl)cc3n2CC(=O)NN=Cc2ccc(OC)c(O)c2)cc1 [Compound 10k, 2-(5,6-Dichloro-2-(4-methoxyphenyl)-1H-benzo[d]imidazol-1-yl)-N'-(3-hydroxy-4-methoxybenzylidene)acetohydrazide]	31.7	48.2	43.8	22	60.8	27.4	20.1	34.7	33.9	46.8	71.2	76.1	21.1	< 5	38.8	42.2	45.6	40.2	62.2	43.4	inhibition at 10 µM (UACC-257): 40.1%; inhibition at 10 µM (UACC-62): 35.4%
